Measured values from publication PMC10674446, “Synthesis and Structural Characterization of Novel Dimers of Dipyridothiazine as Promising Antiproliferative Agents” (Molecules, 2023).
Like-named read-outs stand apart in the source and are kept apart here.

How the values were obtained:
normal L6 rat myoblasts = test: MTT cell viability assay, normal L6 cells; type: cell-based; details: mean ± SD, n = 3, read-out: Anticancer Activity IC50, L6
Method: (§1) MCF7, SW480 and normal L6 muscle cells were bought from the ATCC company, USA [34]. MCF7 and SW480 adenocarcinoma cell lines were cultured, respectively, using Dulbecco’s Modified Eagle Medium (DMEM with 4.5 g/L glucose; HIMEDIA, Mumbai, India) supplemented with 100 U/mL penicillin, 100 µg/mL of streptomycin and 10% fetal bovine serum (FBS; Cat No. FBSEU500; Tico Europe, Amstelveen, The Netherlands) under standard conditions until the desired confluency was reached. Once the desired cell confluency of 70–80% was observed, the cells were sub-cultured through trypsinization, and the cell count was calculated prior to seeding in the 96-well microplate. Similarly, L6 rat myoblasts were cultured accordingly as normal cell lines to compare against MCF7 and SW480 cell lines during the MTT cell viability assay.
(§2) Cells were seeded in a 96-well microplate at a density of 1 × 10^4 cells per well and were allowed to adhere to the wells overnight. Subsequently, the cells were treated with varying concentrations of 12 compounds (1a,b,c–4a,b,c) along with doxorubicin as the positive control. The cells were exposed to the tested substances at concentrations ranging from 50, 25, 10, 5 and 1 μM. The treatment was conducted over three periods of 24 h, 48 h and 72 h, respectively. After the treatment period, thiazolyl blue tetrazolium bromide (MTT) solution was added to each well at a concentration of 0.5 mg/mL and incubated for 3 h in a 37 °C incubator supplemented with 5% CO2. Lastly, the spent MTT medium was removed and DMSO was added to the wells, where the purple formazan crystals were solubilized, and the intensity of the purple hue was spectrophotometrically measured at 570 nm.
(§3) All values were represented as means ± standard deviations (n = 3). The data were statistically analyzed using GraphPad Prism 10.1.0, where the IC50 values of each compound treated on different cell lines at different time points were obtained by extrapolating the logarithmic dose–response curve. The IC50 values were further subjected to one-way ANOVA analysis along with the post hoc test to determine the statistical significance between the treatment groups and the negative control (untreated cells).

SW480 colon cancer = test: MTT cell viability assay, SW480; type: cell-based, human; details: for IC50: mean ± SD, n = 3, read-out: Anticancer Activity IC50, SW480; for Selectivity Index (SI), SW480: SI = IC50 L6 / IC50 SW480
Method: as §1
(§4) Cells were seeded in a 96-well microplate at a density of 1 × 10^4 cells per well and were allowed to adhere to the wells overnight. […] The cells were exposed to the tested substances at concentrations ranging from 50, 25, 10, 5 and 1 μM. The treatment was conducted over three periods of 24 h, 48 h and 72 h, respectively. […] Lastly, the spent MTT medium was removed and DMSO was added to the wells, where the purple formazan crystals were solubilized, and the intensity of the purple hue was spectrophotometrically measured at 570 nm.
(§5) All values were represented as means ± standard deviations (n = 3). […] The IC50 values were further subjected to one-way ANOVA analysis along with the post hoc test to determine the statistical significance between the treatment groups and the negative control (untreated cells).

MCF7 breast cancer = test: MTT cell viability assay, MCF7; type: cell-based, human; details: for Selectivity Index (SI), MCF-7: SI = IC50 L6 / IC50 MCF-7; for IC50: mean ± SD, n = 3, read-out: Anticancer Activity IC50, MCF-7
Method: as §1, §4, §5

[1] = tested on: MCF7 and SW480 cancer cells; test: MTT cell viability assay, both cancer cell lines; type: cell-based, human; details: for cytotoxicity towards MCF7 compared with SW480 (in words): breast cancer cell line MCF7 versus colon cancer cell line SW480; for toxicity towards both MCF7 and SW480 cancer cells (in words): 24, 48 and 72 h of incubation; for IC50: Homo sapiens, MCF7 and SW480, span over 24, 48 and 72 h, read-out: IC50 range towards both cancer cell lines
Method: as §1, §2, §3

[2] = 72 h treatment period, NA = IC50 beyond the tested concentration range (1-50 µM)
[3] = Rattus norvegicus, Myoblast, 24 h treatment period
[4] = Rattus norvegicus, Myoblast, 48 h treatment period
[5] = Rattus norvegicus, Myoblast, 72 h treatment period
[6] = Homo sapiens, SW480, 24 h treatment period
[7] = Homo sapiens, SW480, 48 h treatment period
[8] = Homo sapiens, SW480, 72 h treatment period
[9] = Homo sapiens, MCF7, 24 h treatment period
[10] = Homo sapiens, MCF7, 48 h treatment period
[11] = Homo sapiens, MCF7, 72 h treatment period, NA = IC50 beyond the tested concentration range (1-50 µM)

| Compound | Selectivity Index (SI), SW480 (SW480 colon cancer; 48 h) | Selectivity Index (SI), SW480 (SW480 colon cancer; 72 h) | Selectivity Index (SI), MCF-7 (MCF7 breast cancer; 24 h) | Selectivity Index (SI), MCF-7 (MCF7 breast cancer; 48 h) | Selectivity Index (SI), MCF-7 (MCF7 breast cancer; 72 h) | Selectivity Index (SI), SW480 (SW480 colon cancer; 24 h) | IC50 (normal L6 rat myoblasts; [3]) [µM] | IC50 (normal L6 rat myoblasts; [4]) [µM] | IC50 (normal L6 rat myoblasts; [5]) [µM] | melting point [°C] | IC50 (SW480 colon cancer; [6]) [µM] | IC50 (SW480 colon cancer; [7]) [µM] | IC50 (SW480 colon cancer; [8]) [µM] | IC50 (MCF7 breast cancer; [9]) [µM] | IC50 (MCF7 breast cancer; [10]) [µM] | IC50 (MCF7 breast cancer; [11]) [µM] | further results |
| --- | --- | --- | --- | --- | --- | --- | --- | --- | --- | --- | --- | --- | --- | --- | --- | --- | --- |
| 1,4-bis((dipyrido[2,3-b:2′,3′-e][1,4]thiazin-10-yl)methyl)benzene [3b] | 1.07 | 1.15 | 1.09 | 0.81 | 1.17 | – | – | – | – | – | – | – | – | – | – | – | IC50 (normal L6 rat myoblasts; 24 h treatment period): 20.8 ± 0.28 µM; IC50 (normal L6 rat myoblasts; 48 h treatment period): 22.7 ± 0.29 µM; IC50 (normal L6 rat myoblasts; 72 h treatment period): 22.15 ± 0.22 µM; IC50 (SW480 colon cancer; 24 h treatment period): 24.5 ± 0.26 µM; IC50 (SW480 colon cancer; 48 h treatment period): 21.19 ± 0.14 µM; IC50 (SW480 colon cancer; 72 h treatment period): 19.3 ± 0.12 µM; IC50 (MCF7 breast cancer; 24 h treatment period): 19 ± 1.23 µM; IC50 (MCF7 breast cancer; 48 h treatment period): 28 ± 0.65 µM; IC50 (MCF7 breast cancer; [2]): 18.89 ± 0.15 µM |
| 1,4-bis((dipyrido[2,3-b:2′,3′-e][1,4]thiazin-10-yl)methyl)benzene [4b] | 1.16 | 0.54 | 1.23 | 1.27 | 0.45 | 1.21 | – | – | – | – | – | – | – | – | – | – | IC50 (normal L6 rat myoblasts; 24 h treatment period): 36.7 ± 1.03 µM; IC50 (normal L6 rat myoblasts; 48 h treatment period): 30.8 ± 0.93 µM; IC50 (normal L6 rat myoblasts; 72 h treatment period): 11.6 ± 0.47 µM; IC50 (SW480 colon cancer; 24 h treatment period): 29.1 ± 0.37 µM; IC50 (SW480 colon cancer; 48 h treatment period): 26.4 ± 0.74 µM; IC50 (SW480 colon cancer; 72 h treatment period): 21.41 ± 0.21 µM; IC50 (MCF7 breast cancer; 24 h treatment period): 29.7 ± 1.33 µM; IC50 (MCF7 breast cancer; 48 h treatment period): 24.24 ± 0.17 µM; IC50 (MCF7 breast cancer; [2]): 25.6 ± 0.35 µM |
| c1ccc(CN2c3cccnc3Sc3cccnc32)c(CN2c3cccnc3Sc3cccnc32)c1 [1a, 1,2-bis((dipyrido[2,3-b:2′,3′-e][1,4]thiazin-10-yl)methyl)benzene] | 0.93 | 0.92 | 2.62 | 2.69 | 2.15 | 0.94 | 20.6 ± 0.29 | 19.1 ± 1.08 | 16.1 ± 0.42 | 265 to 267 | 21.8 ± 0.36 | 20.5 ± 0.79 | 17.5 ± 0.5 | 7.85 ± 1.67 | 7.12 ± 0.42 | 7.49 ± 1.13 | cytotoxicity towards MCF7 compared with SW480 (in words) [1]: higher cytotoxicity |
| c1cnc2c(c1)Sc1ncccc1N2Cc1ccc(CN2c3cccnc3Sc3cccnc32)cc1 [1b, 1,4-bis((dipyrido[2,3-b:2′,3′-e][1,4]thiazin-10-yl)methyl)benzene] | 0.1 | 0.59 | 1.38 | 0.12 | 1.22 | 0.55 | 16 ± 0.36 | 1.92 ± 1.39 | 11.7 ± 0.59 | – | 28.7 ± 1.28 | 20.7 ± 1.22 | 19.8 ± 1.21 | 11.6 ± 0.15 | 15.9 ± 0.83 | 9.6 ± 0.46 | cytotoxicity towards MCF7 compared with SW480 (in words) [1]: higher cytotoxicity |
| c1cc(CN2c3cccnc3Sc3cccnc32)nc(CN2c3cccnc3Sc3cccnc32)c1 [1c, 2,6-bis((dipyrido[2,3-b:2′,3′-e][1,4]thiazin-10-yl)methyl)pyridine] | 0.67 | 1.5 | 2.25 | 3.56 | 5.5 | 16.5 | 11.3 ± 0.99 | 2.67 ± 2.13 | 6.82 ± 1.24 | 245 to 247 | 0.67 | 3.97 ± 1.27 | 4.27 ± 0.19 | 5 ± 1.29 | 0.75 ± 1.85 | 1.14 ± 0.51 | toxicity towards both MCF7 and SW480 cancer cells (in words) [1]: significantly toxic; IC50 [1]: 0.67 to 5 µM |
| c1ccc(CN2c3cnccc3Sc3cccnc32)c(CN2c3cnccc3Sc3cccnc32)c1 [2a, 1,2-bis((dipyrido[3,2-b:3′,4′-e][1,4]thiazin-10-yl)methyl)benzene] | 2.03 | 1.75 | 3.5 | 1.83 | 1.59 | 2.32 | 22.1 ± 1.42 | 17.7 ± 0.27 | 13 ± 1.32 | 260 to 261 | 9.68 ± 0.17 | 8.74 ± 0.03 | 7.433 ± 0.02 | 6.27 ± 0.95 | 9.65 ± 0.63 | 8.16 ± 0.97 | toxicity towards both MCF7 and SW480 cancer cells (in words) [1]: significantly toxic; IC50 [1]: 6.27 to 9.68 µM |
| c1cc(CN2c3ccncc3Sc3ccncc32)nc(CN2c3ccncc3Sc3ccncc32)c1 [3c, 2,6-bis((dipyrido[3,4-b:3′,4′-e][1,4]thiazin-10-yl)methyl)pyridine] | 0.94 | 1.37 | 3.25 | 2.42 | 1.41 | 2.19 | 48.98 ± 0.33 | 28.4 ± 0.37 | 35.53 ± 0.04 | 245 to 247 | 22.3 ± 0.93 | 28.8 ± 1.55 | 25.9 ± 0.84 | 15 ± 0.73 | 11.7 ± 0.38 | 25.2 ± 1.74 | – |
| c1ccc(CN2c3ccncc3Sc3ncccc32)c(CN2c3ccncc3Sc3ncccc32)c1 [4a, 1,2-bis((dipyrido[2,3-b:4′,3′-e][1,4]thiazin-5-yl)methyl)benzene] | 0.95 | 0.61 | 1.10 | 0.68 | 0.75 | 1.56 | 35.9 ± 0.57 | 22.9 ± 1.39 | 14.9 ± 1.15 | 302 to 303 | 23 ± 1.22 | 24.1 ± 0.66 | 24.4 ± 0.83 | 32.7 ± 2.31 | 33.8 ± 1.46 | 19.9 ± 2.36 | – |
| COc1cccc2c1C(=O)c1c(O)c3c(c(O)c1C2=O)C[C@@](O)(C(=O)CO)C[C@@H]3O[C@H]1C[C@H](N)[C@H](O)[C@H](C)O1 [Doxorubicin, reference compound] | 0.63 | 0.28 | 0.41 | 0.25 | – | 0.85 | 11.5 ± 0.68 | 6.62 ± 0.18 | 3.07 ± 0.38 | – | 13.46 ± 0.11 | 10.44 ± 0.1 | 10.77 ± 0.07 | 28.4 ± 0.36 | 24.6 ± 2.37 | – | – |
